Measured values: patent US20190053492A1, “SUBSTITUTED PYRIDINE COMPOUNDS AS PESTICIDES” (Bayer CropScience Aktiengesellschaft, priority 2016, published 2019)
Where two headings read alike, the source gives them in different places.

How the values were obtained:
[1] = log P by HPLC on reversed-phase column (C 18), EEC Directive 79/831 Annex V.A8; assay type: physicochemical; conditions: 55° C.; for LOGP_HCOOH: log P (HCOOH); for LOGP_NEUTRAL: log P, neutral range; for chromatographic logP: reversed-phase HPLC column (C 18)
Procedure: Temperature: 55° C. […] Called log P (HCOOH) in the table. […] Called log P (neutral) in the table.

[2] = system: Phaedon cochleariae; test: Phaedon cochleariae spray test; assay type: in vivo; conditions: after 7 days, Chinese cabbage leaf discs
In short: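 Larval kill read at day 7 as percent, where 100% means every larva dead and 0% none; larvae were placed on dried Brassica pekinensis leaf discs previously sprayed with the formulation (acetone/dimethylformamide solvent, alkylaryl polyglycol ether emulsifier, water).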

[3] = system: Spodoptera frugiperda; test: Spodoptera frugiperda spray test; assay type: in vivo; conditions: after 7 days, maize leaf discs
In short: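 Efficacy in % was scored at 7 days against armyworm caterpillars placed on dried, compound-sprayed Zea mays leaf discs. Compound was dissolved in acetone/dimethylformamide and diluted in water with 1000 ppm alkylaryl polyglycol ether. 100% means all caterpillars were killed.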

[4] = acidic range pH 2.7, 0.1% aqueous formic acid and acetonitrile, reversed-phase column (C 18)
[5] = HPLC on reversed-phase column (C 18)
[6] = acidic range at pH 2.7, 0.1% aqueous formic acid and acetonitrile, HPLC on reversed-phase column (C 18)

SMILES | LOGP_HCOOH [1, 4] | LOGP_NEUTRAL [1, 5] | efficacy (beetle larvae killed) ([2]; application rate 100 g/ha) | efficacy (beetle larvae killed) ([2]; application rate 500 g/ha) | efficacy (caterpillars killed) ([3]; application rate 100 g/ha) | efficacy (caterpillars killed) ([3]; application rate 500 g/ha) | LOGP_HCOOH [1, 6] | chromatographic logP ([1]; pH 2.7, LC-MS acidic range, pH 2.7, 0.1% formic acid/acetonitrile, read-out: log P (acidic) / log P (HCOOH)) | chromatographic logP ([1]; pH 2.7, log P (HCOOH), acidic range at pH 2.7, 0.1% aqueous formic acid and acetonitrile, HPLC on reversed-phase column (C 18), read-out: LOGP_HCOOH) | pest or weed control at 500 g/ha ([2]; Phaedon cochleariae, foliar, 168 h, application rate 500 g/ha, read-out: efficacy (beetle larvae killed)) | pest or weed control at 500 g/ha ([3]; Spodoptera frugiperda, foliar, 168 h, application rate 500 g/ha, read-out: efficacy (caterpillars killed))
Cc1cc(OC(F)(F)F)ccc1-c1cc(NC(=O)C2CC2)nc(C(=O)NCc2ccc(C#N)cc2)c1 [Example I-099] | 4.03 | 3.95 | 100% | 100% | 100% | 100% |  |  |  |  | 
O=C(NC1CC1)c1cc(-c2ccc(S(=O)(=O)C(F)(F)F)cc2)cc(NC(=O)C2CC2)n1 [Example I-103] | 3.28 | 3.17 |  | 100% |  | 100% |  |  |  |  | 
N#Cc1ccc(CNC(=O)c2cc(-c3ccc(OC(F)(F)F)cc3)cc(NC(=O)C3CC3)n2)nc1 [Example I-106] | 3.42 | 3.33 | 100% |  | 80% | 100% |  |  |  |  | 
N#Cc1c(F)cc(CNC(=O)c2cc(-c3ccc(OC(F)(F)F)cc3)cc(NC(=O)C3CC3)n2)cc1F [Example I-111] |  | 4.02 | 100% | 100% | 100% | 100% | 4.18 |  |  |  | 
O=C(NCc1ccc(-c2nnco2)cc1)c1cc(-c2ccc(OC(F)(F)F)cc2)cc(NC(=O)C2CC2)n1 [Example I-112] |  | 3.37 |  | 100% | 83% | 100% | 3.41 |  |  |  | 
Cn1ncc2cc(CNC(=O)c3cc(-c4ccc(OC(F)(F)F)cc4)cc(NC(=O)C4CC4)n3)cnc21 [Example I-114] |  | 3.23 |  | 100% | 83% | 100% | 3.33 |  |  |  | 
N#Cc1ccc(CNC(=O)c2cc(-c3ncc(C(F)(F)F)cc3Cl)cc(NC(=O)C3CC3)n2)cc1 [Example I-119] |  | 3.35 | 100% | 100% | 100% | 100% | 3.53 |  |  |  | 
N#Cc1ccc(CNC(=O)c2cc(-c3ccc(C(F)(F)F)nc3)cc(NC(=O)C3CC3)n2)cc1 [Example I-123, N-(4-Cyanobenzyl)-6′-[(cyclopropylcarbonyl)amino]-6-(trifluoromethyl)-3,4′-bipyridine-2′-carboxamide] |  | 2.99 |  |  |  |  |  | 3.02 | 3.13 | 100% | 100%
O=C(Cc1ccc(Br)cc1)Nc1cc(-c2ccc(OC(F)(F)F)cc2)cc(C(=O)NC2CC2)n1 [Example I-125] |  | 4.20 |  | 100% | 100% | 100% | 4.46 |  |  |  | 
C#CC1(NC(=O)c2cc(-c3ccc(OC(F)(F)F)cc3)cc(NC(=O)C3CC3)n2)CC1 [Example I-126] |  |  |  | 100% | 83% | 100% | 3.63 |  |  |  | 
CNC(=O)c1cc(-c2ccc(OC(F)(F)F)cc2)cc(NC(=O)C2CC2)n1 [Example I-127] |  |  |  | 100% | 83% | 100% | 3.02 |  |  |  | 
CC(C)NC(=O)c1cc(-c2ccc(OC(F)(F)F)cc2)cc(NC(=O)C2CC2)n1 [Example I-129] |  |  | 100% | 100% | 100% | 100% | 3.84 |  |  |  | 
CCCNC(=O)c1cc(-c2ccc(OC(F)(F)F)cc2)cc(NC(=O)C2CC2)n1 [Example I-132] |  |  |  | 100% | 100% | 100% | 3.78 |  |  |  | 
O=C(NC1CCOC1=O)c1cc(-c2ccc(OC(F)(F)F)cc2)cc(NC(=O)C2CC2)n1 (stereo not shown) [Example I-135] |  |  |  | 83% |  | 100% | 3.11 |  |  |  | 
O=C(NC1(C(F)(F)F)CC1)c1cc(-c2ccc(OC(F)(F)F)cc2)cc(NC(=O)C2CC2)n1 [Example I-137] |  |  | 100% | 100% | 100% | 100% | 4.17 |  |  |  | 
COC1(NC(=O)c2cc(-c3ccc(OC(F)(F)F)cc3)cc(NC(=O)C3CC3)n2)CC1 [Example I-140] |  |  | 100% | 100% | 100% | 100% | 3.58 |  |  |  | 
N#Cc1ccc(CNC(=O)c2cc(-c3ccc(CC(F)(F)F)cc3)cc(NC(=O)C3CC3)n2)cc1 [Example I-144] |  | 3.00 | 100% | 100% | 100% | 100% | 3.55 |  |  |  | 
O=C(N[C@H]1CC[C@@H](C(F)(F)F)CC1)c1cc(-c2ccc(OC(F)(F)F)cc2)cc(NC(=O)C2CC2)n1 [Example I-145] |  | 4.72 | 100% | 100% | 100% | 100% | 4.90 |  |  |  | 
O=C(NC1CCC(C(F)(F)F)CC1)c1cc(-c2ccc(OC(F)(F)F)cc2)cc(NC(=O)C2CC2)n1 (stereo not shown) [Example I-146] |  | 4.60 |  | 100% |  | 83% | 4.77 |  |  |  | 
CC1(C(=O)Nc2cc(-c3ccc(OC(F)(F)F)cc3)cc(C(=O)NCc3ccc(C#N)cc3)n2)CC1 [Example I-147] |  |  | 100% | 100% | 100% | 100% | 4.33 |  |  |  | 
N#Cc1ccc(CNC(=O)c2cc(-c3ccc(OC(F)(F)C(F)F)cc3)cc(NC(=O)C3CC3)n2)cc1 [Example I-153] |  | 3.48 | 100% | 100% | 100% | 100% | 3.60 |  |  |  | 
N#CCCCCNC(=O)c1cc(-c2ccc(OC(F)(F)F)cc2)cc(NC(=O)C2CC2)n1 [Example I-157] |  | 3.26 |  | 100% | 100% | 83% | 3.38 |  |  |  | 
N#CC1CCC(CNC(=O)c2cc(-c3ccc(OC(F)(F)F)cc3)cc(NC(=O)C3CC3)n2)CC1 (stereo not shown) [Example I-161] |  | 3.74 | 83% | 100% | 100% | 100% | 3.87 |  |  |  | 
